Molecules are shown by their SMILES. pIC50: −log10 of the molar value.

For orientation: pIC50 means the negative decadic logarithm of the IC50, by convention in mol/L. A high value points to a low IC50.

For one series, the target named is human MEK1 (Homo sapiens, UniProt Q02750). The series can be described thus: Inhibition of human MEK1 kinase activity, time resolved fluorescence resonance energy transfer assay. The class given is biochemical. The conditions noted are these: 100 nM MEK1, 15 μM ATP, 300 nM ERK2, two hours. The protocol:
The activity of the compounds of the present invitation may be determined by the following procedure: Inhibition of human MEK1 kinase activity was monitored with a homogenous, fluorescence based assay. The assay uses time resolved fluorescence resonance energy transfer to probe for phosphorylation of […] by MEK1. The assay is carried out in low volume 96 well microtiterplates. In a total volume of 15 μl, compounds are incubated with 100 nM MEK1, 15 μM ATP, 300 nM ERK2 employing a buffer containing 20 mM TRIS/HCl, 10 mM MgCl2, 100 μM NaVO4, 1 mM DTT, and 0.005% Tween 20 (pH 7.4). After two hours, 5 nM Europium-anti-PY20 (Perkin Elmer) and 50 nM Anti-GST-Allophycocyanin (CisBio) in buffer containing 50 mM EDTA and 0,05% BSA are added and the reaction incubated for one hour in the dark. Time-resolved fluorescence is measured using a LJL-Analyst (Molecular Devices) with an excitation wavelength of 340 nm and an emission wavelength of 665 nm. The final concentration of DMSO is 2%. To assess the inhibitory potential of the compounds, IC50-values were determined.

The test system of series [1] is human melanoma Mel5 cells. Kind of series: Tumor cell proliferation assay (ATP Lite), Mel5. The class given is cell-based. The note with it: 4 days incubation. How it is done:
(§1) Assay 2: Tumor Cell Proliferation Assays (ATP Lite)
(§2) Murine colon C26, human melanoma A375 and human melanoma Mel5 cells were plated in 96 well Corning white plates (1500 cells/well for C26, and 2000 cells/well for A375, and MiaPaCa-2) and cultured overnight at 37° C. in 5% CO2. Inhibitors were serially diluted in 100% DMSO and subsequently added to cells to reach a final concentration of 0.25% DMSO. The cells were incubated for 4 days in the presence of test compounds in cell growth media (DMEM with 10% fetal bovine serum, 2 mM glutamine for C26, and MiaPaCa-2, and RPMI with 10% fetal bovine serum, 2 mM glutamine for A375). Cell proliferation was quantitated using the ATP lite cell proliferation kit (Packard). Columns 2-4 show the concentration of compounds required to induce 50% cell death (IC50 in μM) of […]. With “+” meaning 100 μM<IC50≦10 μM and “++” IC50≦1 μM and “n.d.” means not determined.

A further series concerns Murine colon C26 cells. Kind of series: Tumor cell proliferation assay (ATP Lite), C26. The series is classed as cell-based. The conditions noted are these: 4 days incubation. How it is done: as §1, §2
Series [2] deals with human melanoma A375 cells. Kind of series: Tumor cell proliferation assay (ATP Lite), A375. The class given is cell-based. The note with it: 4 days incubation. How it is done: as §1, §2
Series [3] can be described thus: Microsomal stability assay, human liver microsomes. The conditions noted are these: pooled human liver microsomes, pH 7.4; 3 μM compound, 0.5 mg/ml human liver microsomes, 37° C., 2 mM NADPH; read-out: HLM t½. The series is classed as in vitro ADME. How it is done: (§3) Assay 3: Microsomal Stability Assay
(§4) Compounds were tested on their stability in human, rat and mouse liver microsomal preparations (HLM, RLM and MLM respectively). At a final concentration of 3 μM, compounds were incubated at 37° C. with 0.5 mg/ml human, rat or mouse liver microsomes in a buffer containing 50 mM phosphate, pH 7.4 and 2 mM NADPH. Pooled human liver microsomes or pooled male rat liver microsomes (Sprague Dawley) were obtained from NatuTec (Frankfurt, Germany). Incubations without NADPH served as negative controls. Reactions were stopped after 0, 15, 30, 45 or 60 min by the addition of acetonitrile and microsomes were pelleted by centrifugation (10 min at 6200× g). Supernatants were analyzed by HPLC regarding the concentration of mother compound. Finally, the half-life of compounds in the regarding microsomal preparation was calculated.
(In general: Liver microsomes are a subcellular fraction often used to study metabolism.)

The nature of series [4]: Microsomal stability assay, rat liver microsomes. The class given is in vitro ADME. The conditions noted are these: male, Sprague Dawley, pooled rat liver microsomes, pH 7.4; 3 μM compound, 0.5 mg/ml rat liver microsomes, 37° C., 2 mM NADPH; read-out: RLM t½. The protocol:
as §3, §4

For series [5] the following is noted: in vivo; cited from earlier work.
In the next series the test system is Tumors. The conditions noted are these: patients; cited from earlier work.

Chain of human MEK1 (Q02750 whole entry): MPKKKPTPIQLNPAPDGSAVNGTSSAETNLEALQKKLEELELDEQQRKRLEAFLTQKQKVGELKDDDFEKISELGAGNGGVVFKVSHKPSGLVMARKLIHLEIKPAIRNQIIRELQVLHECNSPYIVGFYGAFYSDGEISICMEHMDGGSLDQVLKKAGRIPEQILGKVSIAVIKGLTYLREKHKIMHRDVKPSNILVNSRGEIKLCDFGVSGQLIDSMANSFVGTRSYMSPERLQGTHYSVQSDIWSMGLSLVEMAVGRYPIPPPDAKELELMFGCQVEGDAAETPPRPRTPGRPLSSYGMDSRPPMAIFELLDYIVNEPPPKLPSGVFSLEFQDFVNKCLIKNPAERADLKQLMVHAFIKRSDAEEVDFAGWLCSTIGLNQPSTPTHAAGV

At human MEK1, `Cc1cc(Br)ccc1Nc1cc(=O)n(C)cc1C(=O)O` [Compound 3a, 4-(4-Bromo-2-methyl-phenylamino)-1-methyl-6-oxo-1,6-dihydro-pyridine-3-carboxylic acid] gave a pIC50 not below 6.00. Moreover, in series [1], the “Mel5 cells IC50” value is recorded as “+ (100 μM<IC50≦10 μM)”. Besides, in the series on Murine colon C26 cells, the “C26 cells IC50” value is given as “+ (100 μM<IC50≦10 μM)”. Moreover, in series [2], the “A375 cells IC50” value is given as “+ (100 μM<IC50≦10 μM)”.

At human MEK1, `Cc1cc(I)ccc1Nc1cc(=O)n(C)cc1C(=O)O` [Compound 3b, 4-(4-Iodo-2-methyl-phenylamino)-1-methyl-6-oxo-1,6-dihydro-pyridine-3-carboxylic acid] gave a pIC50 not below 6.00.

`Cc1cc(Br)ccc1Nc1cc(=O)n(C)cc1C(=O)NO` [Compound 4a, 4-(4-Bromo-2-methyl-phenylamino)-1-methyl-6-oxo-1,6-dihydro-pyridine-3-carboxylic acid hydroxyamide] showed a pIC50 at human MEK1 not below 6.00. For the same compound, the “Mel5 cells IC50” value in series [1] is given as “+ (100 μM<IC50≦10 μM)”. Further, the “C26 cells IC50” value with Murine colon C26 cells was “+ (100 μM<IC50≦10 μM)”. In addition, in series [2], the “A375 cells IC50” value was “+ (100 μM<IC50≦10 μM)”.

For the compound `Cc1cc(Br)ccc1Nc1cc(=O)n(C)cc1C(=O)NOC[C@@H](O)CO` [Compound 4b, 4-[(4-Bromo-2-methylphenyl)amino]-N-{[(2S)-2,3-dihydroxypropyl]oxy}-1-methyl-6-oxo-1,6-dihydropyridine-3-carboxamide], the pIC50 against human MEK1 is not below 6.00. The half-life at 3 μM in series [3] and in series [4] was more than 2 h in each case. Also, the “Mel5 cells IC50” value in series [1] is recorded as “+ (100 μM<IC50≦10 μM)”. Moreover, the “C26 cells IC50” value in the series with Murine colon C26 cells is listed as “+ (100 μM<IC50≦10 μM)”. Further, in series [2], the “A375 cells IC50” value was “+ (100 μM<IC50≦10 μM)”.

`Cc1cc(I)ccc1Nc1cc(=O)n(C)cc1C(=O)NOC[C@@H](O)CO` [Compound 4c, 4-[(4-Iodo-2-methylphenyl)amino]-N-{[(2S)-2,3-dihydroxypropyl]oxy}-1-methyl-6-oxo-1,6-dihydropyridine-3-carboxamide] gave a pIC50 against human MEK1 not below 6.00. The half-life at 3 μM in series [3] and in series [4] was more than 2 h each time. The “C26 cells IC50” value in the series with Murine colon C26 cells is reported as “+ (100 μM<IC50≦10 μM)”. Moreover, the “A375 cells IC50” value in series [2] is recorded as “+ (100 μM<IC50≦10 μM)”.

As for `C=CCNc1nnc(-c2cn(C)c(=O)cc2Nc2ccc(Br)cc2C)o1` [Compound 7a, 5-(5-Allylamino-[1,3,4]oxadiazol-2-yl)-4-(4-bromo-2-methyl-phenylamino)-1-methyl-1H-pyridin-2-one], the pIC50 on human MEK1 is not below 6.00. Also, the half-life at 3 μM in series [3] and in series [4] was 0.517 to 2 h each time.

Take `O=C(NOCC1CC1)c1ccc(F)c(F)c1Nc1ccc(I)cc1Cl` [PD-184352]: the bioavailability entry in series [5] was “low”. Further, the “efficacy in clinical phase II trials” value in the series with Tumors is “lacking efficacy”.
